{"source": "patent US5446186A", "about": "“Structure and synthesis of nitrophenyl-EGTA, a caged calcium, intermediates thereof and a method of producing a high photochemical yield of liberated calcium” (priority 1993, dated 1995)", "key": {"[1]": {"experiment": "Mg^2+ affinity by titration of Mg^2+-indicator mag-fura-red without and with NP-EGTA", "format": "binding", "conditions": "40 mM hepes, 100 mM KCl, pH 7.2, 25° C.; absorbance at 480 nm", "protocol": "The Mg^2+ affinity of NP-EGTA was determined by titration of the Mg^2+ -indicator, mag-fura-red (20 μM) without and with NP-EGTA (10 mM) in buffer (40 mM hepes, 100 mM KCl, pH=7.2) at 25° C."}, "[2]": {"experiment": "Selectivity for Ca^2+ versus Mg^2+: fluo-3 signal on addition of 1 mM Mg^2+ and on irradiation", "format": "binding"}, "[3]": {"experiment": "Ca^2+ affinity by titration of chelator with Ca^2+, fluo-3 emission, Scatchard analysis", "format": "binding", "conditions": "40 mM hepes, 100 mM KCl, pH 7.2, 20° C.; before photolysis", "source_text": "The affinity of NP-EGTA for Ca^2+ was obtained by titration of the chelator with incremental additions of Ca^2+. […] For any chelator:Ca^a+ complex to function effectively as a caged Ca, the pre-photolysis affinity should be high for two reasons. First, it is crucial that the resting or pre-photolysis [Ca^2+ ] is very low, i.e. that it is non-activating or sub-threshold for the biological system being investigated. The Kd^Ca and the total amounts of Ca^2+ and chelator determine [Ca^2+ ]free. Secondly, the percentage of chelator loaded with Ca^2+ before photolysis is important as this is a factor which determines how much Ca^2+ is liberated upon photolysis, as Ca^2+ can only be photoreleased if it is complexed. Also, if the chelator is frilly loaded, then the photoreleased Ca^2+ will not be rebound by unphotolysed, unloaded chelator, i.e. step increases rather than pulses of Ca^2+ will be produced (see ref. 19, 20)."}, "[4]": {"system": "chemically skinned psoas fibers from rabbit skeletal muscle", "experiment": "Ca-induced contraction of chemically skinned skeletal muscle fibers after laser flash photolysis", "format": "cell-based", "conditions": "for time to achieve half-maximal tension: 15° C., 347 nm ruby laser flash, NP-EGTA:Ca^2+ 1.9 mM at 1 mM free Mg^2+, or DM-nitrophen:Ca^2+ 1.4 mM at 40 μM free Mg^2+; for tension transients, NP-EGTA compared with DM-nitrophen: photoreleased Ca^2+; for maximal contraction / full tension after laser flash: single 347 nm ruby laser flash, free Mg^2+ 1 mM (NP-EGTA), 40 μM (DM-nitrophen); for Ca^2+ release as rate-limiting step for contraction: skinned skeletal muscle fiber", "source_text": "The arrow indicates the time of a pulse from a frequency-doubled ruby laser (347 nm). For DM-nitrophen, before photolysis, the muscle-bathing solution contained (mM): Tes (100), HDTA (27.91), ATPNa2 (3.0), creatine phosphate (20), glutathione (10), DM-nitrophen (2.0), MgCl2 (1.19), CaCl2 (1.60). In the NP-EGTA solution there was (mM): Tes (100), HDTA (25.35), ATPNa2 (5.50), creatine phosphate (20), glutathione (10), NP-EGTA (2.1), MgCl2 (7.0), CaCl2 (1.9). The pH of both solutions was 7.0; the ionic strength was 0.2M. Tension development was measured as in Ref. 24.\nPhotolysis of nitrophenyl-EGTA:Ca^2+ and DM-nitrophen:Ca^2+ complexes were used to release Ca^2+ rapidly in chemically skinned psoas fibers from rabbit skeletal muscle. […] The time to achieve half-maximal tension using NP-EGTA was 17.9 ms and 18.1 ms with DM-nitrophen at 15° C. (see FIG. 4). […] It is interesting that there are no major effects, on the rate of the development of tension nor on the maximal contraction, due to a change in [Mg]free from 40 μM to 1 mM in these experiments."}, "[5]": {"experiment": "Absorption and fluorescence spectral properties", "format": "physicochemical", "protocol": "FIG. 1 is an absorption spectra of nitrophenyl-EGTA. The absorption spectrum of a solution of NP-EGTA ([…]) in buffer (40 mM hepes, 100 mM KCl, pH 7.2) is shown (spectrum a). The spectrum is altered (spectrum b) on addition of saturating Ca^2+ (0.20 mM). Photolysis of this sample for 300 s with the filtered output of a 1-kW Hg are lamp yielded photoproducts with spectrum (c).\nThe absorption spectra of NP-EGTA without and with saturating Ca^2+ are shown in FIG. 1(a) and (b) respectively. The extinction coefficients at 260 and 347 nm are 5.52×10^3 M^-1 cm^-1 and 974 M^-1 cm^-1 respectively in Ca^2+ -free buffer (40 mM hepes, 100 mM KCl, pH 7.2). Saturating Ca^2+ produces a 10% decrease in the absorption at 260 nm. The absorption spectrum changes to that shown in FIG. 1(c) upon complete photolysis in the presence of Ca^2+. […] In fact, fluo-3 saturated with Ca^2+ is about 2.1×10s-fold more fluorescent at 530 nm than NP-EGTA is at 400 nm."}, "[6]": {"experiment": "Quantum yield of photolysis by HPLC, comparison to caged-Pi", "format": "physicochemical", "protocol": "The filtered output of 1000-W high pressure Hg arc lamp was used to photolyze solutions of NP-EGTA (1.77 mM) or caged-Pi (3.12 mM) in buffer (40 mM hepes, 100 mM KCl, pH 7.2) with absorbances of 0.0105 in a cuvette with a pathlength of […]. Each solution also contained inosine (100 mM) as the internal standard.\nOn the left, t=0 s, on the fight, t=15 s.\nOn the left, t=0 s, on the fight, t=15 s. HPLC was performed using a Novapak C18 reverse-phase HPLC column and two Waters 501 pumps fitted with a Waters 680 automated control module delivering 2 ml/min. Pump A delivered […] and pump B 80% acetonitrile/0.052% TFA. The gradient was for 0-5 min 100% A, from 5-20 min a linear change to 80% A, and from 20-40 min 80% A. The eluent was monitored by a Waters 990 photodiode array detector and chromatograms are shown at 260 nm.\nThe quantum yield of NP-EGTA photolysis was determined by comparison to that of caged-Pi which has previously been determined to have a quantum yield of photolysis of 0.54 (17). The time-course of disappearance of the caged compounds was followed by HPLC analysis of the reaction mixture (FIG. 2). The amount of NP-EGTA or caged-Pi remaining in the reaction mixture was normalized for each HPLC analysis by comparison to a photochemically inert internal standard, inosine (100 mM). […] Under the same conditions (i.e. flux density), 10.3% of NP-EGTA was photolyzed when saturating Ca^a+ (3.0 mM) was present (FIG. 2b). Thus, the quantum yield of photolysis of the NP-EGTA:Ca^2+ complex is 0.23."}, "[7]": {"conditions": "pH 7.2; before photolysis; read-out: Kd for Ca^2+ (comparison chelators); cited from earlier work"}, "[8]": {"conditions": "DM-nitrophen:Ca^2+ complex; cited from earlier work"}, "[9]": {"conditions": "Ca^2+-free buffer, 40 mM hepes, 100 mM KCl, pH 7.2"}}, "note": "“Also recorded” adds a separate entry of the source. Read-outs that look alike come from different tables or passages of the source.", "data": [{"molecule": "O=C(O)CN(CCOCCOCC(c1ccccc1[N+](=O)[O-])N(CC(=O)O)CC(=O)O)CC(=O)O", "note": "(centres unmarked) [NP-EGTA]", "values": [{"measurement": "Kd", "setting": "[1]", "value": 8.8, "unit": "mM"}, {"measurement": "Kd for Mg^2+", "setting": "[1]", "value": "in the mM range"}, {"measurement": "effect of 1 mM Mg^2+ on fluo-3 signal", "setting": "[2]; 0.655 mM NP-EGTA with 0.55 mM Ca^2+", "value": "no effect on the fluo-3 signal; also recorded: no increase in the fluo-3 signal"}, {"measurement": "Ca^2+ liberation on irradiation in presence of Mg^2+ (fluo-3 signal)", "setting": "[2]; frequency-doubled ruby laser, 347 nm", "value": "liberates Ca^2+ from the NP-EGTA:Ca^2+ complex"}, {"measurement": "Kd", "setting": "[3]", "value": 80, "unit": "nM"}, {"measurement": "time to achieve half-maximal tension", "setting": "[4]", "value": 17.9, "unit": "ms"}, {"measurement": "time to achieve half-maximal tension", "setting": "[4]; listed as nitrophenyl-EGTA", "value": 18, "unit": "ms"}, {"measurement": "tension transients, NP-EGTA compared with DM-nitrophen", "setting": "[4]", "value": "identical, rapid tension transients"}, {"measurement": "maximal contraction / full tension after laser flash", "setting": "[4]", "value": "releases sufficient Ca^2+ to generate full tension in the muscle fiber"}, {"measurement": "maximal contraction / full tension after laser flash", "setting": "[4]; listed as nitrophenyl-EGTA", "value": "maximal contraction after a single flash"}, {"measurement": "Ca^2+ release as rate-limiting step for contraction", "setting": "[4]", "value": "also not rate-limiting"}, {"measurement": "fluorescence emission", "setting": "[5]", "value": "virtually non-fluorescent"}, {"measurement": "extinction coefficient at 260 nm", "setting": "[5]; [9]", "value": 5520, "unit": "M⁻¹ cm⁻¹"}, {"measurement": "extinction coefficient at 347 nm", "setting": "[5]; [9]", "value": 974, "unit": "M⁻¹ cm⁻¹"}, {"measurement": "decrease in absorption at 260 nm on saturating Ca^2+", "setting": "[5]; saturating Ca^2+", "value": 10, "unit": "%"}, {"measurement": "quantum yield of photolysis, in the absence of Ca^2+", "setting": "[6]; Ca^2+-free, pH 7.2", "value": 0.20}, {"measurement": "percent photolyzed with Ca^2+", "setting": "[6]; after 15 s, saturating Ca^2+ (3.0 mM), 0.25 min, 1770 µM", "value": 10.3, "unit": "%"}, {"measurement": "percent photolyzed without Ca^2+", "setting": "[6]; same flux density, Ca^2+-free, 1770 µM", "value": 8.91, "unit": "%"}, {"measurement": "quantum yield of photolysis, in the presence of Ca^2+", "setting": "[6]; saturating Ca^2+ (3.0 mM), pH 7.2", "value": 0.23}, {"measurement": "photolysis efficiency relative to DM-nitrophen", "setting": "[6]; versus DM-nitrophen (ref. 4)", "value": "the same as that of DM-nitrophen"}, {"measurement": "photolysis efficiency relative to nitr-5 or nitr-7", "setting": "[6]; versus nitr-5 or nitr-7 (ref. 2)", "value": "~6", "unit": "times"}]}, {"molecule": "Cc1ccc(N(CC(=O)O)CC(=O)O)c(OCCOc2cc(C(O)c3cc4c(cc3[N+](=O)[O-])OCO4)ccc2N(CC(=O)O)CC(=O)O)c1", "note": "(centres unmarked) [nitr-5]", "values": [{"measurement": "Ca^2+ released on 50% photolysis", "setting": "1.0 mM Ca^2+ present", "value": 0.80, "unit": "mM"}, {"measurement": "prephotolysis free [Ca^2+]", "setting": "1.0 mM Ca^2+ present", "value": 0.145, "unit": "mM"}]}, {"molecule": "O=C(O)CN(CCOCCOCCN(CC(=O)O)CC(=O)O)CC(=O)O", "note": "[EGTA, ethylenebis(oxyethylenenitrilo)tetraacetic acid]", "values": [{"measurement": "Kd", "setting": "[7]", "value": 150, "unit": "nM"}]}, {"molecule": "COc1cc(C(CN(CC(=O)O)CC(=O)O)N(CC(=O)O)CC(=O)O)c([N+](=O)[O-])cc1OC", "note": "(centres unmarked) [DM-nitrophen, reference compound]", "values": [{"measurement": "time to achieve half-maximal tension", "setting": "[4]", "value": 18.1, "unit": "ms"}, {"measurement": "tension transients, NP-EGTA compared with DM-nitrophen", "setting": "[4]", "value": "identical, rapid tension transients"}, {"measurement": "maximal contraction / full tension after laser flash", "setting": "[4]", "value": "Rapid development of maximal tension"}, {"measurement": "Ca^2+ release as rate-limiting step for contraction", "setting": "[4]", "value": "not rate-limiting"}, {"measurement": "Kd", "setting": "[7]", "value": 5, "unit": "nM"}, {"measurement": "Ca^2+ release t1/2", "setting": "[8]", "value": "≤ 180", "unit": "microseconds"}]}, {"molecule": "Cc1ccc(N(CC(=O)O)CC(=O)O)c(O[C@@H]2CCC[C@@H]2Oc2cc(C(O)c3cc4c(cc3[N+](=O)[O-])OCO4)ccc2N(CC(=O)O)CC(=O)O)c1", "note": "(some centres unmarked) [nitr-7]", "values": [{"measurement": "Ca^2+ released on 50% photolysis", "setting": "[chelator]:[Ca^2+] 2 mM:1.50 mM", "value": 3, "unit": "mM"}]}, {"molecule": "CC(OP(=O)(O)O)c1ccccc1[N+](=O)[O-]", "note": "(centres unmarked) [caged-Pi, 1-(o-nitrophenyl)-ethyl phosphate, reference compound]", "values": [{"measurement": "percent photolyzed", "setting": "[6]; after 15 s, caged-Pi 3.12 mM, 0.25 min", "value": 15.1, "unit": "%"}]}]}
